Source: patent US7642272B2, “Cannabinoid receptor ligands” (Schering Corporation, priority 2003, dated 2010)

Target: T1, recombinant human cannabinoid CB2 receptor (Homo sapiens, UniProt P34972)
T1 construct: purchased Receptor Biology RB-HCB2
Test: competition with [3H] CP-55,940 for binding to recombinant cannabinoid receptor membranes (CB2)
Conditions: not given
Experimental: Potential cannabinoid receptor ligands were screened for the ability to compete with [^3H] CP-55,940 for binding to recombinant cannabinoid receptors. Test compounds were serially diluted in Diluent Buffer (50 mM Tris pH 7.1, 1 mM EDTA, 3 mM MgCl2, 0.1% BSA, 10% DMSO, 0.36% methyl cellulose (Sigma M-6385)) from stocks prepared in 100% DMSO. Aliquots (10 μL) were transferred into 96-well microtiter plates. Membrane preparations of recombinant human cannabinoid CB2 receptor (Receptor Biology #RB-HCB2) or recombinant human cannabinoid CB1 receptor (Receptor Biology #RB-HCB1) were diluted to 0.3 mg/mL in Binding Buffer (50 mM Tris pH 7.2, 1 mM EDTA, 3 mM MgCl2, 0.1% BSA). Aliquots (50 μL) were added to each well of the microtiter plate. The binding reactions were initiated by addition of [^3H] CP-55,940 (New England Nuclear # NET 1051; specific activity=180 Ci/mmol) to each well of the microtiter plate. Each 100 μl reaction mixture contained 0.48 nM [^3H] CP-55,940, 15 μg membrane protein in binding buffer containing 1% DMSO and 0.036% methyl cellulose. Following incubation for 2 hours at room temperature, the reactions were filtered through 0.5% polyethylenimine-coated GF/C filter plates (UniFilter-96, Packard) with a TomTec Mark 3U Harvester (Hamden, CT). The filter plate was washed 5 times with binding buffer, rotated 180°, then re-washed 5 times with binding buffer. Bound radioactivity was quantitated following addition of 30 μl of Packard Microscint 20 scintillant in a Packard TopCount NXT microplate scintillation counter. Non-linear regression analysis of the resulting data was performed using Prism 2.0b (GraphPad, San Diego, Calif.).
The activities (potencies) for the compounds of the invention are determined by measuring their Ki values.

T1 sequence (P34972 whole entry): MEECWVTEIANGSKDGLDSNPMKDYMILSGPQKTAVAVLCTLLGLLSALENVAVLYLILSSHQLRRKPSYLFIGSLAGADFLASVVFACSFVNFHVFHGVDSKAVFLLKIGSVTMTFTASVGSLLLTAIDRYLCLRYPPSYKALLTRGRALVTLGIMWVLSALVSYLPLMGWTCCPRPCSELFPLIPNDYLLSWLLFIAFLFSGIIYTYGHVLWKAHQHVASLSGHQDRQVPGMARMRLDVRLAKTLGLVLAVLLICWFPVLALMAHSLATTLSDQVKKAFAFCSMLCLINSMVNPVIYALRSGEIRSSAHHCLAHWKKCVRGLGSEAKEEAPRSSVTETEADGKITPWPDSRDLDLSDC

Question: Which Ki does the source give for `CC(C)c1ccc(S(=O)(=O)c2ccc(OC(F)(F)F)cc2S(=O)(=O)c2ccccc2F)cc1` [F] here?
Answer: < 20 nM

Question: Which Ki does the source give for `COc1ccc(S(=O)(=O)c2ccc(C(C)C)cc2)c(S(=O)(=O)c2ccccn2)c1` [AG] here?
Answer: < 20 nM

Question: `CC(C)c1ccc(Cc2ccc(OC(F)(F)F)cc2S(=O)(=O)c2ccccc2F)cc1` [C] was tested. Which Ki did it give?
Answer: < 20 nM

Question: Which Ki does the source give for `CC(C)c1ccc(S(=O)(=O)c2c(S(=O)(=O)c3ccccc3F)c3ccccc3n2C)cc1` [AO] here?
Answer: < 20 nM

Same assay, conditions: 0.48 nM [3H] CP-55,940, 15 μg membrane protein, 2 hours at room temperature; read-out: CB2 Ki

Question: `O=S(=O)(c1ccc(C2CC2)cc1)c1ccc(Cl)cc1S(=O)(=O)c1ccccc1F` [K] was tested. Which Ki did it give?
Answer: < 20 nM

Question: Which Ki does the source give for `COc1ccc(S(=O)(=O)c2ccc(C3CC3)cc2)c(S(=O)(=O)c2ccccc2F)c1` [AH] here?
Answer: < 20 nM

Question: With `CC(C)c1ccc(S(=O)(=O)c2ccc(C(C)C)cc2S(=O)(=O)c2ccccn2)cc1` [AJ] as the compound, how does the Ki read?
Answer: < 20 nM

Question: With `CC(C)Oc1ccc(S(=O)(=O)c2ccc(C(C)C)cc2)c(S(=O)(=O)c2ccccc2F)c1` [AK] as the compound, how does the Ki read?
Answer: < 20 nM

Question: With `CC(C)c1ccc(S(=O)(=O)c2c(S(=O)(=O)c3ccccn3)c3ccccc3n2C)cc1` [AQ] as the compound, how does the Ki read?
Answer: < 20 nM

Question: How did the Ki turn out when `CC(C)c1ccc(S(=O)(=O)c2ccc(OC(F)(F)F)cc2S(=O)(=O)c2ccccn2)cc1` [G] was run?
Answer: < 20 nM

Question: Which Ki does the source give for `COCCOc1ccc(S(=O)(=O)c2ccc(C(C)C)cc2)c(S(=O)(=O)c2ccccc2F)c1` [S] here?
Answer: < 20 nM
